PMC9246773, “Assessing the Activity of Antimicrobial Peptides Against Common Marine Bacteria Located in Rotifer (Brachionus plicatilis) Cultures” (Probiotics and Antimicrobial Proteins, 2022)
Like-named read-outs stand apart in the source and are kept apart here. No end group written: not given here.

Legend:
Assay type in all cases: cell-based
Shewanella sp. [1] = system: Shewanella sp.
Method: (§1) A range of bacterial species with the potential to be transferred to developing fish larvae as pathogens or probiotics were selected for use in the study (Table 2). Bacterial isolates were stored at −80 °C and thawed, and 25 µL of the isolates was spread onto marine salt agar (MSA) media. All isolates were incubated at 25 °C for 18 h to reach mid-log growth phase. All isolates were sub-cultured and identified using mass spectrometry (MALDI-TOF) using the BioTyper and MBT 8468 library (Bruker Pty Ltd). The isolate Tenacibaculum discolor was plated on Anacker and Oradal’s marine (AOM) media, incubated for 48 h and identified using the aforementioned method. Bacterial isolates were suspended in sterile saline (0.75% NaCl w/v) to 0.5 McFarland standard. […] The bacterial isolates T. discolor and Pseudoalteromonas sp. require marine salts to grow and were not added to MHB (0‰). The isolate T. discolor requires low nutrients to grow, therefore, a separate MHB (25‰) was prepared at a diluted ratio of 1 part MHB and 7 parts artificial seawater (25‰).
(§2) The protocol was followed to determine the minimum inhibitory concentration (MIC) of the selected peptides. Two MIC assays were performed, firstly to determine whether each peptide precipitated in MHB and thereby required acetic acid adjustments (supplementary materials) and secondly, to determine the antimicrobial activity of each peptide in artificial seawater (25‰). Peptide stock solutions (1.3 mg mL^−1) were made by diluting the peptides in sterile deionised water. MHB was made with deionised water to reach a concentration of approaching 0‰ and artificial sea salts (Sigma-Aldrich® S9883) to reach a salinity of 25‰.
(§3) Once the acetic acid requirement for each peptide was determined (Table 3), the antimicrobial activity of each peptide was tested at a salinity of 0‰ and 25‰ for all bacterial isolates. A stock solution for peptides that required acetic acid was prepared by a 1:2 dilution in acetic acid (0.02% acetic acid w/v, containing 0.4% BSA) solution. In a 96-well polypropylene microtitre plates (Costar® 3879), 100 µL of this peptide stock was added to the first well for each bacterial isolate tested and serially diluted twofold with acetic acid (0.01% acetic acid w/v, containing 0.2% BSA). From each well, 10 µL of each peptide concentration was added to the corresponding wells of a new 96-well microtitre plate. From each of the bacterial suspensions (0‰), 90 µL was added to each well. […] Twofold serial dilutions were made with MHB (0‰). From each of the bacterial suspensions (0‰), 50 µL was added to each well. The same method was followed for testing peptides in MHB at 25‰. All peptide concentrations ranged from 0.125 to 65 µg mL^−1, and the bacterial suspension in each well was approximately 5 × 10^5 CFU mL^−1. The different salinities were used to compare any differences in antimicrobial activity in 0‰ and 25‰ water. […] Each bacterium was trialled in duplicate.

[2] = system: Vibrio harveyi (ATCC 35084)
Method: as §1, §2, §3

Vibrio alginolyticus [3] = system: Vibrio alginolyticus
Method: as §1, §2, §3

[4] = system: Escherichia coli (ATCC 25922)
Method: as §1, §2, §3

Pseudoalteromonas sp. = system: Pseudoalteromonas sp.
Method: as §1, §2, §3

Vibrio scophthalmi [5] = system: Vibrio scophthalmi
Method: as §1, §2, §3

Vibrio harveyi [6] = system: Vibrio harveyi
Method: as §1, §2, §3

Vibrio rotiferianus [7] = system: Vibrio rotiferianus
Method: as §1, §2, §3

Tenacibaculum discolor = system: Tenacibaculum discolor
Method: as §1, §2, §3

Shewanella sp. [8] = system: Shewanella sp.; remark: listed apart in the source
Method: as §1, §2
(§4) A broth microdilution protocol was followed to test whether the AMPs precipitated in MHB. The isolates T. discolor and Pseudoalteromonas were excluded from this assay because they required marine salts for growth. The peptides HHC10 and HHC36 previously required acetic acid adjustments according to [63] and were not trialled in this assay. To test if peptides required acetic acid, each peptide was diluted 1:2 in acetic acid (0.02% acetic acid w/v, containing 0.4% BSA) solution. In a 96-well polypropylene microtitre plates (Costar® 3879), 100 µL of this peptide stock was added to the first well for each bacterial isolate tested and serially diluted 2-fold with acetic acid (0.01% acetic acid w/v, containing 0.2% BSA). From each well, 10 µL of each peptide concentration was added to the corresponding wells of a new 96-well microtitre plate. From each of the bacterial suspensions in MHB (0‰), 90 µL was added to each well. […] From each of the bacterial suspensions in MHB (0‰), 50 µL was added to each well. All peptide concentrations ranged from 0.125 - 65µg mL^-1 and the bacterial suspension in each well was approximately 5 × 10^5 CFU mL^-1. Antimicrobial peptides that have an MIC value two or more dilutions higher in the assay with no acetic acid, compared to the assay with acetic acid, require acetic acid adjustments. The 96-well plates were incubated at 25 °C and read at 24 and 48 hours. The MIC was visually determined using a Sensititre™ Vizion™ Digital MIC Viewing System (Thermo Scientific™), and the lowest AMP concentration that had no bacterial growth was recorded as the MIC after 48 hours. Each bacterium was trialled in duplicate.

[9] = system: Vibrio harveyi (ATCC 35084); remark: listed apart in the source
Method: as §1, §2, §4

Vibrio alginolyticus [10] = system: Vibrio alginolyticus; remark: listed apart in the source
Method: as §1, §2, §4

[11] = system: Escherichia coli (ATCC 25922); remark: listed apart in the source
Method: as §1, §2, §4

Vibrio scophthalmi [12] = system: Vibrio scophthalmi; remark: listed apart in the source
Method: as §1, §2, §4

Vibrio harveyi [13] = system: Vibrio harveyi; remark: listed apart in the source
Method: as §1, §2, §4

Vibrio rotiferianus [14] = system: Vibrio rotiferianus; remark: listed apart in the source
Method: as §1, §2, §4

[15] = MHB 0‰, acetic acid only for peptides requiring it, 25 °C, MIC after 48 h, ca. 5 × 10^5 CFU mL^-1, duplicate
[16] = MHB with artificial sea salts 25‰, acetic acid only for peptides requiring it, 25 °C, MIC after 48 h, ca. 5 × 10^5 CFU mL^-1, duplicate
[17] = no acetic acid (peptide diluted 1:10 in MHB), MHB 0‰, 25 °C, MIC after 48 h, ca. 5 × 10^5 CFU mL^-1, duplicate
[18] = with acetic acid (0.01% acetic acid w/v, 0.2% BSA diluent), MHB 0‰, 25 °C, MIC after 48 h, ca. 5 × 10^5 CFU mL^-1, duplicate

VLQIKKVLRLLL-NH2 [Peptide 3011] was tested, and the “MIC Shewanella sp., salinity 0‰” value (Shewanella sp. [1]; [15]) was 8.13 µg/mL, the “MIC Shewanella sp., salinity 25‰” value (Shewanella sp. [1]; [16]) was over 65 µg/mL and the “MIC V. harveyi ATCC 35084, salinity 0‰” value [2, 15] was 8.13 µg/mL. For the same substance, the “MIC V. harveyi ATCC 35084, salinity 25‰” value [2, 16] was over 65 µg/mL, the “MIC V. alginolyticus, salinity 0‰” value (Vibrio alginolyticus [3]; [15]) was 4.06 µg/mL and the “MIC V. alginolyticus, salinity 25‰” value (Vibrio alginolyticus [3]; [16]) was over 65 µg/mL. For the same substance, the “MIC E. coli ATCC 25922, salinity 0‰” value [4, 15] was 16.25 µg/mL, the “MIC E. coli ATCC 25922, salinity 25‰” value [4, 16] was over 65 µg/mL and the “MIC Pseudoalteromonas sp., salinity 25‰” value (Pseudoalteromonas sp.; MHB with artificial sea salts 25‰, 25 °C, MIC after 48 h, ca. 5 × 10^5 CFU mL^-1, duplicate) was over 65 µg/mL. For the same substance, the “MIC V. scophthalmi, salinity 0‰” value (Vibrio scophthalmi [5]; [15]) was 1.02 µg/mL, the “MIC V. scophthalmi, salinity 25‰” value (Vibrio scophthalmi [5]; [16]) was over 65 µg/mL and the “MIC V. harveyi, salinity 0‰” value (Vibrio harveyi [6]; [15]) was 8.13 µg/mL. The “MIC V. harveyi, salinity 25‰” value (Vibrio harveyi [6]; [16]) was over 65 µg/mL, the “MIC V. rotiferianus, salinity 0‰” value (Vibrio rotiferianus [7]; [15]) was 4.06 µg/mL and the “MIC V. rotiferianus, salinity 25‰” value (Vibrio rotiferianus [7]; [16]) was over 65 µg/mL. The “MIC T. discolor, salinity 25‰” value (Tenacibaculum discolor; MHB (25‰) diluted 1 part MHB and 7 parts artificial seawater (25‰), 25 °C, MIC after 48 h, ca. 5 × 10^5 CFU mL^-1, duplicate) was over 65 µg/mL, the “MIC Shewanella sp., No acetic” value (Shewanella sp. [8]; [17]) was 16.25 µg/mL and the “MIC Shewanella sp., Acetic” value (Shewanella sp. [8]; [18]) was 16.25 µg/mL. For the same substance, the “MIC V. harveyi ATCC 35084, No acetic” value [9, 17] was 8.13 µg/mL, the “MIC V. harveyi ATCC 35084, Acetic” value [9, 18] was 16.25 µg/mL and the “MIC V. alginolyticus, No acetic” value (Vibrio alginolyticus [10]; [17]) was 4.06 µg/mL. For the same substance, the “MIC V. alginolyticus, Acetic” value (Vibrio alginolyticus [10]; [18]) was 4.06 µg/mL, the “MIC E. coli ATCC 25922, No acetic” value [11, 17] was 8.13 µg/mL and the “MIC E. coli ATCC 25922, Acetic” value [11, 18] was 16.25 µg/mL. For the same substance, the “MIC V. scophthalmi, No acetic” value (Vibrio scophthalmi [12]; [17]) was 2.03 µg/mL, the “MIC V. scophthalmi, Acetic” value (Vibrio scophthalmi [12]; [18]) was 4.06 µg/mL and the “MIC V. harveyi, No acetic” value (Vibrio harveyi [13]; [17]) was 32.5 µg/mL. For the same substance, the “MIC V. harveyi, Acetic” value (Vibrio harveyi [13]; [18]) was 16.25 µg/mL, the “MIC V. rotiferianus, No acetic” value (Vibrio rotiferianus [14]; [17]) was 4.06 µg/mL and the “MIC V. rotiferianus, Acetic” value (Vibrio rotiferianus [14]; [18]) was 4.06 µg/mL.

With WVGVIIKWGLKL-NH2 [Peptide 3018] the “MIC Shewanella sp., salinity 0‰” value (Shewanella sp. [1]; 48 h) was 16.25 µg/mL, the “MIC Shewanella sp., salinity 25‰” value (Shewanella sp. [1]; 48 h) was over 65 µg/mL and the “MIC V. harveyi ATCC 35084, salinity 0‰” value ([2]; ATCC 35084, 48 h) was 32.5 µg/mL. The “MIC V. harveyi ATCC 35084, salinity 25‰” value ([2]; ATCC 35084, 48 h) was over 65 µg/mL, the “MIC V. alginolyticus, salinity 0‰” value (Vibrio alginolyticus [3]; 48 h) was 2.03 µg/mL and the “MIC V. alginolyticus, salinity 25‰” value (Vibrio alginolyticus [3]; 48 h) was over 65 µg/mL. The “MIC E. coli ATCC 25922, salinity 0‰” value ([4]; ATCC 25922, 48 h) was 65 µg/mL, the “MIC E. coli ATCC 25922, salinity 25‰” value ([4]; ATCC 25922, 48 h) was over 65 µg/mL and the “MIC Pseudoalteromonas sp., salinity 25‰” value (Pseudoalteromonas sp.; 48 h) was over 65 µg/mL. The “MIC V. scophthalmi, salinity 0‰” value (Vibrio scophthalmi [5]; 48 h) was 1.02 µg/mL, the “MIC V. scophthalmi, salinity 25‰” value (Vibrio scophthalmi [5]; 48 h) was over 65 µg/mL and the “MIC V. harveyi, salinity 0‰” value (Vibrio harveyi [6]; 48 h) was 16.25 µg/mL. For the same substance, the “MIC V. harveyi, salinity 25‰” value (Vibrio harveyi [6]; 48 h) was over 65 µg/mL, the “MIC V. rotiferianus, salinity 0‰” value (Vibrio rotiferianus [7]; 48 h) was 8.13 µg/mL and the “MIC V. rotiferianus, salinity 25‰” value (Vibrio rotiferianus [7]; 48 h) was over 65 µg/mL. For the same substance, the “MIC T. discolor, salinity 25‰” value (Tenacibaculum discolor; 48 h) was over 65 µg/mL, the “MIC Shewanella sp., Acetic” value (Shewanella sp. [8]; 48 h) was 16.25 µg/mL and the “MIC Shewanella sp., No acetic” value (Shewanella sp. [8]; 48 h) was 8.13 µg/mL. The “MIC V. harveyi ATCC 35084, Acetic” value ([9]; ATCC 35084, 48 h) was 16.25 µg/mL, the “MIC V. harveyi ATCC 35084, No acetic” value ([9]; ATCC 35084, 48 h) was 8.13 µg/mL and the “MIC V. alginolyticus, Acetic” value (Vibrio alginolyticus [10]; 48 h) was 8.13 µg/mL. The “MIC V. alginolyticus, No acetic” value (Vibrio alginolyticus [10]; 48 h) was 4.06 µg/mL, the “MIC E. coli ATCC 25922, Acetic” value ([11]; ATCC 25922, 48 h) was over 65 µg/mL and the “MIC E. coli ATCC 25922, No acetic” value ([11]; ATCC 25922, 48 h) was 16.25 µg/mL. For the same substance, the “MIC V. scophthalmi, Acetic” value (Vibrio scophthalmi [12]; 48 h) was 0.25 µg/mL, the “MIC V. scophthalmi, No acetic” value (Vibrio scophthalmi [12]; 48 h) was 2.03 µg/mL and the “MIC V. harveyi, Acetic” value (Vibrio harveyi [13]; 48 h) was 16.25 µg/mL. For the same substance, the “MIC V. harveyi, No acetic” value (Vibrio harveyi [13]; 48 h) was 16.25 µg/mL, the “MIC V. rotiferianus, Acetic” value (Vibrio rotiferianus [14]; 48 h) was 8.13 µg/mL and the “MIC V. rotiferianus, No acetic” value (Vibrio rotiferianus [14]; 48 h) was 4.06 µg/mL.
